Data set [1] relates to LNCaP. The data set is described as follows: MTT cell viability assay, LNCaP. The conditions noted are these: 96 hours exposure; for GI50: Homo sapiens. The class given is cell-based, human. The procedure: (§1) All cell lines were obtained from American Type Culture Collection (Rockville, Md.) and maintained in RPMI 1640 media supplemented with 10% fetal bovine serum and 5% penicillin/streptomycin solution. Cells were grown as a monolayer in a humidified incubator (5% CO2) at 37° C. To determine the effect of the compounds on cell proliferation, cells were plated (2500 cells/well) in 96-well cell culture dishes (Corning, Inc. Corning, N.Y.). After a 24 hr attachment period, media was replaced with fresh media containing compounds (0.01 μM-100 μM) or vehicle (95% ethanol). The cells were then allowed to grow in the presence of the drugs for 96 hours. After 96 hours, relative cell viability was assessed using the MTT reagent (3-(4,5-dimethylthiazol-2-yl)-2,5-diphenyltetrazolium bromide) as described in Patel, et al. 2004^43. Experiments were carried out three times with six replicates per dose per experiment (n=18). Results were plotted using the average of each dose over all three experiments and fitted with a best-fit sigmoidal dose response variable slope curve using GraphPad Prism 4.01 (GraphPad Software, Inc.). […] Combination index (CI) was calculated as previously described^44. CI values less than 1 are considered synergistic.

The conditions of data set [2]: given clinically as the prodrug abiraterone acetate; cited from earlier work.
Data set [3] relates to DU-145. The data set is described as follows: MTT cell viability assay, DU-145. The data set is classed as cell-based. Particulars: for GI90 / GI50: DU-145, MTT, 96 hours exposure. The procedure:
as §1
In general terms: Formazan colour is commonly taken as a measure of viable cells.

Data set [4] has as its system PC-3. The data set is described as follows: MTT cell viability assay, PC-3. The class given is cell-based. Particulars: for GI90 / GI50: MTT, 96 hours exposure. The procedure:
Cells were grown as a monolayer in a humidified incubator (5% CO2) at 37° C. To determine the effect of the compounds on cell proliferation, cells were plated (2500 cells/well) in 96-well cell culture dishes (Corning, Inc. Corning, N.Y.). […] The cells were then allowed to grow in the presence of the drugs for 96 hours. […] Experiments were carried out three times with six replicates per dose per experiment (n=18). […] Combination index (CI) was calculated as previously described^44. CI values less than 1 are considered synergistic.

Data set [5] concerns PC-3 cells. Description: Absolute [Ca2+]i in PC-3 cells (Fura-2AM). The data set is classed as cell-based. The conditions noted are these: 20 μM DHA, 2 hours. On the procedure: PC-3 Cells were loaded with either fura-2 or fluo-3 indicator by incubation with 2 μM fura-2/AM or 2 μM fluo-3/AM in RPMI 1640 medium containing 10% fetal bovine serum for >60 min at room temperature. During experiments, the coverslips were mounted in a flow chamber and superfused with oxygenated Locke solution containing (in mM): 10 glucose, 136 NaCl, 5.6 KCl, 1.2 NaH2PO4, 14.3 NaHCO3, 1.2 MgCl2, and 2.2 CaCl2, pH 7.4, at room temperature (22-24° C.).
Cells loaded with fura-2 were placed in a perfusion chamber mounted on an inverted microscope (TE200; Nikon, Tokyo, Japan) equipped with a UV-transmitting objective (SuperFluor, 40×, N.A. 1.4, Nikon). Fura-2 was alternately excited by 340 nm and 380 nm light from monochrometers (Deltascan Illumination System, Photonic Technology International (PTI), South Brunswick, N.J.) and fura-2 emission was passed through a 515 nm longpass filter before detection by a cooled CCD camera (Retiga 2000R, Q-Imaging, Burnaby, Canada). For measurement of Ca^2+ transients in individual cells, coverslips with fluo-3 loaded cells were excited by the output of a 100 W mercury arc lamp that passed through a 480 nm bandpass filter (30 nm bandwidth). Fluorescence emission was passed through a 515 nm longpass filter before capture by a cooled CCD camera (Retiga 2000R, Q-Imaging). Image acquisition was performed with QCapture Pro (Q-Imaging) and analysis was performed with ImageJ (U.S. National Institutes of Health, Bethesda, Md., USA).
Fluo-3 Ca^2+ indicator measurements are reported as the fractional change in fluorescence intensity relative to baseline (ΔF/F0), which was determined as follows. Within a temporal sequence of fluorescence images, a region of interest (ROI) was drawn around each cell to be analyzed. The fluorescence signal from each cell was calculated as the pixel-averaged intensity within each ROI. In these experiments, a slight downward drift in baseline was typically observed, which was principally attributable to photo-bleaching of the indicator. In such cases, the drift was always well fit by a low-amplitude single-exponential decay. The fitted baseline value (F0) at every time point was then used to calculate ΔF/F0. ΔF/F0 values are reported as mean±SE. For fura-2 measurements, [Ca^2+]i was derived using the ratio method of Grynkiewicz et al.^46

Data set [6] concerns PC-3 cells. The data set is described as follows: Western blot of ERSR related proteins in PC-3 cells. The data set is classed as cell-based. Particulars: 20 μM DHA, PC-3. On the procedure: Protein was isolated, subjected to SDS-PAGE, transferred and imaged as previously described^45. All primary antibodies were purchased from Cell Signaling (Danvers, Mass.). Quantitation of relative protein expression was determined via densitometry using the software ImageQuant 5.0 (Molecular Dynamics) with each protein normalized to its respective loading control. Results represent the average of at least three independent experiments, with representative blots shown.

The conditions of data set [7]: mice, s.c. 50 mg/kg, cited from earlier work.

Consider `C[C@]12CC[C@H](O)CC1=CC[C@@H]1[C@@H]2CC[C@]2(C)C(c3cccnc3)=CC[C@@H]12` [Abiraterone, abiraterone, reference compound], for which the GI90 in data set [1] is 25.12 µM; in data set [3], above 100 µM; in data set [4], above 100 µM. Besides, the peak plasma concentrations entry in data set [2] was “below 1 μM”.
The term GI50 denotes the concentration that inhibits growth by half. On to `C[C@]12CC[C@H](O)CC1=CC[C@@H]1[C@@H]2CC[C@]2(C)C(=O)CC[C@@H]12` [DHEA, dihydroandrosterone, reference compound], for which the “effect on [Ca2+]i” value in data set [5] is listed as “did not have a significant effect”. Moreover, in data set [3], the GI50 is above 100 µM. Also, the “growth inhibitory activity against DU-145 cells” value in data set [3] (up to 100 μM) is “lacked any growth inhibitory activity”. In data set [4], the “fold less potent than Compound 5 in inhibiting PC-3 cells” value is listed as around 10 fold, the GI50 came out at 67.6 µM and the GI90 is above 100 µM. Besides, the “effect on the protein markers measured” value in data set [6] was “no significant effect”.
Regarding `C[C@]12CCC(=O)C=C1CC[C@@H]1[C@@H]2CC[C@]2(C)C(n3cnc4ccccc43)=CC[C@@H]12` [Compound 6, 17-(1H-benzimidazole-1-yl)androsta-4,16-diene-3-one], the GI90 was 13.46 µM in data set [1], 15.53 µM in data set [3] and 8.07 µM in data set [4]. For the same compound, the terminal half-lives in data set [7] (plasma) is listed as 39.93 min. Besides, the “detectability in plasma at 8 hours” value in data set [7] is listed as “neither was detectable”. In addition, in data set [7], the peak plasma levels is 5.15 ng/mL.
With `C[C@]12CC[C@H](O)CC1=CC[C@@H]1[C@@H]2CC[C@]2(C)C(n3ccnc3)=CC[C@@H]12` [Compound 17, 3β-Hydroxy-17-(1H-imidazol-1-yl)androsta-5,16-diene], the GI90 in data set [1] stood at 36.49 µM; in data set [3] it was 31.62 µM; in data set [4], 30.41 µM. In addition, the GI50 in data set [1] turned out to be 2.47 µM; in data set [3] (Homo sapiens), 5.31 µM; in data set [4] (Homo sapiens), 1.86 µM.
On to `C[C@]12CC[C@H](O)CC1=CC[C@@H]1[C@@H]2CC[C@]2(C)C(n3cncn3)=CC[C@@H]12` [Compound 16, 3β-Hydroxy-17-(1H-1,2,4-triazol-1-yl)androsta-5,16-diene], for which the GI90 in data set [1], in data set [3] and in data set [4] was above 100 µM throughout. For the same compound, the GI50 in data set [1] is 1.05 µM; in data set [3] (Homo sapiens), 11 µM; in data set [4] (Homo sapiens) it was 2.91 µM.

The values are drawn from patent publication US9295679B2, “Prodrugs of C-17-heteroaryl steroidal CYP17 inhibitors/antiandrogens: synthesis, in vitro biological activities, pharmacokinetics and antitumor activity” (University of Maryland, Baltimore, priority 2008, dated 2016).
